In experiment [1] the test system is acute myelogenous leukemia cell strain KG1. Kind of experiment: Growth inhibition of FGFR1-dependent KG1 cells (CCK-8). It is filed as cell-based. As to conditions: Homo sapiens, KG-1, 72 h treatment. The protocol:
The growth inhibition of the acute myelogenous leukemia cell strain KG1 (FGFR1-dependent tumor cell strain; the FGFR1 fusion protein in the cell was expressed in the cytoplasm; purchased from ATCC cell bank) by the compounds was detected with CCK-8 cell count kit (Dojindo). The specific steps are as follows: KG1 cells in logarithmic growth phase were seeded onto a 96-well culture plate in appropriate density, 90 ul per well. After overnight culture, different concentrations of compounds were added and the treatment continued for 72 h, and solvent control group (negative control) was set. After treatment for 72 h, the effect of the compounds on cell proliferation was observed by CCK-8 cell counting kit (Dojindo). 10 μL of CCK-8 reagent was added to each well. After incubated for 2-4 hours in a 37 □ incubator, read with SpectraMax 190 microplate reader at 450 nm wavelength. The inhibition rate (%) of the compounds on tumor cell growth was calculated using the following formula: Inhibition rate (%)=(OD negative control well-OD administered well)/OD negative control well×100%.

For a further experiment, the target named is FGFR1 (Homo sapiens (Human), UniProt P11362). Kind of experiment: FGFR1 kinase activity at the molecular level (ELISA, Poly(Glu,Tyr) 4:1 substrate). It is filed as biochemical. As to conditions: kinase domain recombinant protein, 5 μM ATP. The protocol: (§1) 100 μL/well of 2 mg/mL OPD developing solution (diluted with 0.1M citric acid-sodium citrate buffer containing 0.03% H2O2 (pH=5.4)), and reacted in dark for 1-10 minutes at 25° C.

The target of a further experiment is FGFR2 (Homo sapiens (Human), UniProt P21802). The experiment in a line: FGFR2 kinase activity at the molecular level (ELISA, Poly(Glu,Tyr) 4:1 substrate). The experiment is classed as biochemical. As to conditions: kinase domain recombinant protein, 5 μM ATP. As for the experimental part: as §1
(An ELISA detects its analyte on a solid surface through an enzyme-linked reagent.)

The next experiment concerns the target FGFR3 (Homo sapiens (Human), UniProt P22607). Kind of experiment: FGFR3 kinase activity at the molecular level (ELISA, Poly(Glu,Tyr) 4:1 substrate). The experiment is classed as biochemical. As to conditions: kinase domain recombinant protein, 5 μM ATP. The protocol:
as §1

Molecules are shown by their SMILES. Some results are limits rather than exact numbers.

For orientation: IC50 means the concentration needed to halve the response being measured.

FGFR2, sequence (P21802 481-770): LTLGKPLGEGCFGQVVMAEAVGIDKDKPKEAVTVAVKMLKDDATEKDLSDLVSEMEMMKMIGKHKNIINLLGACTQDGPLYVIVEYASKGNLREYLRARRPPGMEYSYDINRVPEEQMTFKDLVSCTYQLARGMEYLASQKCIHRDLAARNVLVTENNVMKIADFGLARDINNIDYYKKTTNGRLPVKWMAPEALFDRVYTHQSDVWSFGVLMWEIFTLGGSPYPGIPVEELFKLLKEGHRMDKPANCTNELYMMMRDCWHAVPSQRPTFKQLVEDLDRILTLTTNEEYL
FGFR3, sequence (P22607 472-761): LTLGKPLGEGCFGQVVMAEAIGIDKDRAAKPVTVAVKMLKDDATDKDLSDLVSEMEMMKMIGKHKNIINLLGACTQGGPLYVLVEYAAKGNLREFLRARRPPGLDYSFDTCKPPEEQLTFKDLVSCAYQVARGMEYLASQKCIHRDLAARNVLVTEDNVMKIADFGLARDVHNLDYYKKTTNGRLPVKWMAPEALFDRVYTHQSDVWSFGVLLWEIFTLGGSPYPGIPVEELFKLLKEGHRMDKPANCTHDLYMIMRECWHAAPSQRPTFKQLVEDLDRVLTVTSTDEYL
FGFR1, sequence (P11362 478-767): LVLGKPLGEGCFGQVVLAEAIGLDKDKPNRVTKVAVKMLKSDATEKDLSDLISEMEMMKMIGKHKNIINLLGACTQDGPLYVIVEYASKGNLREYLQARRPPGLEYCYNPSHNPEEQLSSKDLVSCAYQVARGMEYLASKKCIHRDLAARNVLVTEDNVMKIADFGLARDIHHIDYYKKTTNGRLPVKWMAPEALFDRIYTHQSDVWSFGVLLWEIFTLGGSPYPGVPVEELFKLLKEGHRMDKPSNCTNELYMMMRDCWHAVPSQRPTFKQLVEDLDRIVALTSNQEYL

With `COc1cc(OC)c(Cl)c(-c2ccc3c(NC(=O)c4ccc(N5C[C@@H](C)N[C@@H](C)C5)cc4)n[nH]c3c2)c1Cl` [Example 14], in experiment [1], the concentration for half-maximal inhibition (IC50) is < 200 nM.

In the case of `COc1cc(OC)c(Cl)c(-c2ccc3c(NC(=O)c4ccc(N5CCN(C)CC5)cc4)n[nH]c3c2)c1Cl` [Example 15, N-(6-(2,6-dichloro-3,5-dimethoxyphenyl)-1H-indazole-3-yl)-4-(4-methylpiperazine-1-yl)benzamide], the IC50 at FGFR1 was < 100 nM; at FGFR2, < 100 nM; at FGFR3, < 100 nM; in experiment [1], < 200 nM.

With `COc1cc(OC)c(Cl)c(-c2ccc3c(NC(=O)c4ccc(CN5CCN(C)CC5)cc4)n[nH]c3c2)c1Cl` [Example 16, N-(6-(2,6-dichloro-3,5-dimethoxyphenyl)-1H-indazole-3-yl)-4-((4-methylpiperazine-1-yl)methyl)benzamide], the IC50 at FGFR1 is < 100 nM; on FGFR2 it was < 100 nM; at FGFR3, < 100 nM; in experiment [1], 200 to 1000 nM.

As to `COc1cc(OC)c(Cl)c(-c2ccc3c(NC(=O)c4ccc(N5CCOCC5)cc4)n[nH]c3c2)c1Cl` [Example 17, N-(6-(2,6-dichloro-3,5-dimethoxyphenyl)-1H-indazole-3-yl)-4-morpholino benzamide], the IC50 on FGFR1 is < 100 nM; on FGFR2, < 100 nM; at FGFR3, < 100 nM; in experiment [1], 200 to 1000 nM.

In the case of `CCN1CCN(c2ccc(C(=O)Nc3n[nH]c4cc(-c5c(Cl)c(OC)cc(OC)c5Cl)ccc34)cc2)CC1` [Example 18, N-(6-(2,6-dichloro-3,5-dimethoxyphenyl)-1H-indazole-3-yl)-4-(4-ethylpiperazine-1-yl)benzamide], the 50% inhibitory concentration (IC50) was < 100 nM at FGFR1, < 100 nM on FGFR2, < 100 nM at FGFR3 and < 200 nM in experiment [1].

For the compound `COc1cc(OC)c(Cl)c(-c2ccc3c(NC(=O)c4ccc(CN5CCN(C(C)=O)CC5)cc4)n[nH]c3c2)c1Cl` [Example 19, 4-((4-acetyl-1-yl)methyl)-N-(6-(2,6-dichloro-3,5-dimethoxyphenyl)-1H-indazole-3-yl)benzamide], the concentration for half-maximal inhibition (IC50) was < 100 nM at FGFR1, < 100 nM at FGFR2, < 100 nM at FGFR3 and 200 to 1000 nM in experiment [1].

(Values after patent publication US10562900B2 (Shanghai Haihe Pharmaceutical Co., Ltd., priority 2014, dated 2020).)
